# Data as given in ChEMBL document CHEMBL1240343, “Transition state analogs of 5'-methylthioadenosine nucleosidase disrupt quorum sensing” (Nat Chem Biol, 2009).
# Active and inactive are the calls of the source. No cut-off for these calls is given here.
# Experiments:
# Escherichia coli [1] = experiment: Ratio of Km to Ki for Escherichia coli MTAN
# [2] = Inhibition of Escherichia coli MTAN
# [3] = target: T1, 5'-methylthioadenosine/S-adenosylhomocysteine nucleosidase (Vibrio cholerae serotype O1 (strain ATCC 39315 / El Tor Inaba N16961), UniProt Q9KPI8); experiment: Binding affinity to His-tagged Vibrio cholerae recombinant MTAN expressed in Escherichia coli […]
# T1 sequence (Q9KPI8 whole entry): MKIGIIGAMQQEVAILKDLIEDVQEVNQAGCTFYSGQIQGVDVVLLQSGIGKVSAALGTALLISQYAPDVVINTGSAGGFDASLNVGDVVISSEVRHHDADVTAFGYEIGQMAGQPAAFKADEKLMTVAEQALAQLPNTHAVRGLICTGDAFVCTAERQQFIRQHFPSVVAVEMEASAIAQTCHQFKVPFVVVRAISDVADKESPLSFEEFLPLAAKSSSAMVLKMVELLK
# Vibrio cholerae [4] = experiment: Antimicrobial activity against Vibrio cholerae N16961 assessed as effect on cell growth up to 1 uM; type: functional, organism-based
# Escherichia coli [5] = experiment: Antibacterial activity MTAN-deficient Escherichia coli assessed as induction of growth deffect at 0.5 uM after 16 hrs; type: functional, organism-based
# Vibrio cholerae [6] = experiment: Antibacterial activity against Vibrio cholerae N16961 at 2.5 uM; type: functional, organism-based
# Vibrio cholerae [7] = experiment: Antibacterial activity against Vibrio cholerae N16961 at 1 uM; type: functional, organism-based
# Vibrio cholerae [8] = experiment: Inhibition of Vibrio cholerae N16961 biofilm production at 1 uM after 24 hrs; type: functional; details: N16961, 24 h
# [9] = target: 5'-methylthioadenosine/S-adenosylhomocysteine nucleosidase (Escherichia coli O157:H7) (UniProt P0AF14); experiment: (§1) Inhibition of Escherichia coli O157:H7 EDL933 MTAN-mediated autoinducer-2 production assessed as inhibition of light induction in quorum-sensing Vibrio harveyi BB120 by luminescence induction assay
# Escherichia coli [10] = experiment: Antibacterial activity Escherichia coli O157:H7 EDL933 at 2.5 uM; type: functional, organism-based
# Escherichia coli [11] = experiment: Inhibition of Escherichia coli O157:H7 EDL933 biofilm production at 1 uM after 24 hrs; type: functional; details: O157:H7 EDL933, 24 h
# Vibrio cholerae [12] = experiment: Antibacterial activity against Vibrio cholerae N16961 at 1 uM after 24 hrs; type: functional, organism-based
# Escherichia coli [13] = experiment: Antibacterial activity Escherichia coli O157:H7 EDL933 at 1 uM; type: functional, organism-based
# Vibrio harveyi = experiment: Inhibition of autoinducer-2 production in Vibrio harveyi BB120 assessed as inhibition of light induction by luminescence induction assay; type: functional; details: Vibrio harveyi ATCC BAA-1116
# Escherichia coli [14] = experiment: Antibacterial activity against Escherichia coli O157:H7 EDL933 at 1 uM after 24 hrs; type: functional, organism-based
# Escherichia coli [15] = experiment: Antibacterial activity Escherichia coli O157:H7 EDL933 assessed as induction of growth deffect at 0.5 uM after 16 hrs; type: functional, organism-based
# [16] = target: T2, 5'-methylthioadenosine/S-adenosylhomocysteine nucleosidase (Vibrio cholerae serotype O1 (strain ATCC 39315 / El Tor Inaba N16961)) (UniProt Q9KPI8); details: 1 uM
# T2 sequence (whole entry): T1 sequence (Q9KPI8 whole entry)
# [17] = target: 5'-methylthioadenosine/S-adenosylhomocysteine nucleosidase (Escherichia coli O157:H7, UniProt P0AF14); experiment: as §1
# [18] = target: T2, 5'-methylthioadenosine/S-adenosylhomocysteine nucleosidase (Vibrio cholerae serotype O1 (strain ATCC 39315 / El Tor Inaba N16961)); details: 1 uM; remark: listed apart in the source
# 5'-methylthioadenosine/S-adenosylhomocysteine nucleosidase (Escherichia coli O157:H7), sequence (P0AF14 whole entry, looked up): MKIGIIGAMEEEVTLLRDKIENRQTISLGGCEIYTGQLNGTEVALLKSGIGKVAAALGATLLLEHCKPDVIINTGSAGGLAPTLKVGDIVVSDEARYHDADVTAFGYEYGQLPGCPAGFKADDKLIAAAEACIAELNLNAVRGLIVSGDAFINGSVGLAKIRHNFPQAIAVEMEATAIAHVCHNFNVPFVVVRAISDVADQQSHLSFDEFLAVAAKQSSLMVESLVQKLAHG
# 5'-methylthioadenosine/S-adenosylhomocysteine nucleosidase (Escherichia coli O157:H7, UniProt P0AF14), sequence (P0AF14 whole entry): as the sequence (P0AF14 whole entry, looked up) above
smiles,measurement,setting,value
Nc1ncnc2c(CN3C[C@H](CSc4ccc(Cl)cc4)[C@@H](O)C3)c[nH]c12,Ratio,Escherichia coli [1],1e+08
same,Kd,[2],0.047 pM
same,Kd,[3],330 pM
same,Activity,Vibrio cholerae [4],inactive
CCCCSC[C@H]1CN(Cc2c[nH]c3c(N)ncnc23)C[C@@H]1O,Activity,Escherichia coli [5],inactive
same,Activity,Vibrio cholerae [6],inactive
same,Activity,Vibrio cholerae [7],inactive
same,inhibition at 1 µM,Vibrio cholerae [8],71%
same,Kd,[2],0.3 pM
same,inhibition,[9],Dose-dependent effect
same,Activity,Escherichia coli [10],inactive
same,inhibition at 1 µM,Escherichia coli [11],18%
same,Activity,Vibrio cholerae [12],inactive
same,Activity,Escherichia coli [13],inactive
same,inhibition,Vibrio harveyi,inactive
same,Activity,Vibrio cholerae [4],inactive
same,Activity,Escherichia coli [14],inactive
same,Activity,Escherichia coli [15],inactive
Nc1ncnc2c(CN3C[C@H](CSCc4ccccc4)[C@@H](O)C3)c[nH]c12,Kd,[3],64 pM
CCSC[C@H]1CN(Cc2c[nH]c3c(N)ncnc23)C[C@@H]1O,Activity,Vibrio cholerae [4],inactive
Nc1ncnc2c([C@@H]3N[C@H](CSCc4ccccc4)[C@@H](O)[C@H]3O)c[nH]c12,Kd,[3],2100 pM
CCSC[C@H]1N[C@@H](c2c[nH]c3c(N)ncnc23)[C@H](O)[C@@H]1O,Kd,[3],1600 pM
CSC[C@H]1CN(Cc2c[nH]c3c(N)ncnc23)C[C@@H]1O,Activity,Escherichia coli [5],inactive
same,Kd,[2],0.2 pM
same,inhibition,[16],Active
same,IC50,[17],600000 pM
same,inhibition,[9],Dose-dependent effect
same,inhibition,[18],Active
same,Activity,Vibrio cholerae [4],inactive
same,Activity,Escherichia coli [15],inactive
Nc1ncnc2c([C@@H]3N[C@H](CSc4ccc(Cl)cc4)[C@@H](O)[C@H]3O)c[nH]c12,Kd,[3],2200 pM
CSC[C@H]1N[C@@H](c2c[nH]c3c(N)ncnc23)[C@H](O)[C@@H]1O,Kd,[3],10000 pM
